System: HEK293FT cells transfected with TF library
Test: Screening of TF condensates based on fluorescent puncta
Type: cell-based
Conditions: Figure 1B numerical data; TF library screen, one value per transcriptional factor
Experimental: TF plasmids were automatically added to black-walled 384-well plates at 80 ng per well to reach a final concentration of 1.6 μg/ml. Polyethylenimine (PEI, Sigma) was then added to the plasmid-loaded plates at 240 ng per well (4.8 μg/ml). Subsequently, HEK293FT cells were seeded into the plate at 2000 cells per well. After 60 h, cells were cultured in medium with or without glucose for 12 h, and then fixed with 4% paraformaldehyde (PFA) at room temperature for 30 min. After three washes with PBS, fixed cells were permeabilized with 0.05% Triton X-100 for 15 min. Thereafter, cells were blocked with 5% BSA for 1 h, and then incubated overnight with anti-Flag (Sigma F3165, 1:200) and anti-GAL4 (Abbkine ABP57232, 1:200) primary antibodies at 4 °C. The cells were then gently washed with PBS, followed by being incubated with Alexa Fluor Plus 488 goat anti-mouse IgG secondary antibody (Thermo A32723, 1:400) or Alexa Fluor Plus 488 goat anti-rabbit IgG secondary antibody (Thermo A32731, 1:400) for 1 h. The plates were kept at 4 °C in the dark before being analyzed using an Opera System (Perkin Elmer). Fifty random fields per well were scanned and analyzed using the Columbus Plus Image Data Storage and Analysis System (Perkin Elmer).

Substance	Z score of condensed fraction
MYT1L	-0.407
NEUROD6	1.486
NFIA	0.5032
NFIB	0.509
NFIC	-0.8557
NH1H1	-0.5104
NKX3-1	-0.7603
NKX3-2	1.062
NPM1	0.01602
NR2E1/TLX	-0.5566
NR5A1	-0.8082
NRBF2	-0.07151
OTX1	-0.7284
PAX2	-1.114
PAX6	-0.2168
PAX9	-0.6994
PBRM1	-1.101
PCBD2	-0.6918
PDX1	-0.1162
PHF19	-0.6582
PHOX2A	0.2668
PHOX2B	-1.179
PITX1	0.6327

Substance	Z score of condensed fraction
PITX3	1.221
PNRC2	0.4868
PRDM1	-0.6129
PRDM2	-1.186
PRDM4	-0.7551
PRDM13	-0.08172
PRRX1	-0.08333
PSMC3	1.134
RAX2	0.03236
RERE	-0.9918
RHOA	2.893
RREB1	-1.018
SOX5	-1.09
SOX11	1.034
SOX14	0.5877
SOX15	0.259
SOX17	0.6231
SOX21	-0.645
SP1	-0.5886
SP4	0.4803
SP7	-0.6845
SP8	-1.149
SPIB	-0.6455

Substance	Z score of condensed fraction
SSX1	0.2068
ST18	-0.7086
SUMO1	-0.2512
SUPT3H	2.5076
TADA1L	-0.6293
TAF11	-0.1333
TAL1	1.608
TAL2	1.36
TFAP2C	1.42
TFAP2D	-0.6052
TFAP2E	1.779
TGIF2	0.8605
TIGD4	-0.7471
TLX2	-0.3265
TULP4	-0.4703
VSX1	0.9653
VSX2	2.883
WIZ	-0.9233
XRCC6	-0.8161
ZBTB8A	0.3848
ZBTB14	-0.8092
ZBTB16	0.8279
ZDHHC17	0.6824

Substance	Z score of condensed fraction
ZFP1	-1.01
ZFP37	-0.4393
ZFP161	-0.4432
ZFP238	-0.7406
ZFP263	2.5993
ZKSCAN8	-0.06563
ZNF10	-0.8346
ZNF22	-0.4323
ZNF34	-0.5261
ZNF37A	-0.5462
ZNF57	0.3
ZNF77	-1.086
ZNF92	0.2513
ZNF132	-0.5777
ZNF133	-0.4329
ZNF136	-0.8979
ZNF175	-0.614
ZNF177	-0.2364
ZNF197	-0.8156
ZNF212	-0.4443
ZNF221	-0.687
ZNF223	0.1367
ZNF227	-1.039

Substance	Z score of condensed fraction
ZNF230	0.8569
ZNF254	0.4246
ZNF257	0.03056
ZNF267	2.62
ZNF273	-0.8812
ZNF302	-1.141
ZNF320	0.5251
ZNF329	-0.4972
ZNF333	-0.8758
ZNF345	-1.14
ZNF404	-1.0199
ZNF417	1.093
ZNF432	-0.5974
ZNF433	-0.2089
ZNF454	-0.2763
ZNF490	-0.9623
ZNF496	0.02283
ZNF500	-0.7824
ZNF517	-0.6071
ZNF529	-0.8409
ZNF530	-0.1863
ZNF540	-0.9698
ZNF548	1.7562

Substance	Z score of condensed fraction
ZNF549	2.12
ZNF556	-0.2629
ZNF562	1.118
ZNF572	-0.6768
ZNF587	0.9024
ZNF596	-0.5741
ZNF621	-0.6157
ZNF626	2.964
ZNF643	2.053
ZNF670	2.5783
ZNF677	-0.6787
ZNF679	-1.052
ZNF680	-0.6442
ZNF689	-0.54
ZNF695	-0.08978
ZNF707	0.9339
ZNF747	1.603
ZNF768	-0.6686
ZNF785	-0.4418
ZNF829	0.6314
ZSCAN2	-0.2191
ZSCAN22	-0.5621
ZSCAN23	0.2133

From PMC11574045, “A cofactor-induced repressive type of transcription factor condensation can be induced by synthetic peptides to suppress tumorigenesis” (The EMBO Journal, 2024)
